“Also recorded” adds a separate entry of the source.
How the values were obtained:
[1] = tested on: human dermal lymphatic endothelial cells (LECs), engineered lymphatic vessel; assay: lymphatics-on-chip lymphatic drainage under cytokine challenge; type: cell-based
Description: (§1) To overcome the issues outlined above, a microfluidic 3D culture model featuring an engineered lymphatic vessel that can drain interstitial fluid was developed. The device includes a polydimethylsiloxane (PDMS) housing and two parallel cylindrical channels within a 3D collagen hydrogel (FIG. 1A). Human dermal lymphatic endothelial cells (LECs) seeded in one channel generated an engineered lymphatic vessel (FIG. 1A) that expressed lymphatic endothelial markers with appropriate apical-basal orientation (FIG. 1A and FIG. 1B). Furthermore, stimulation with the lymphangiogenic vascular endothelial growth factor C (VEGFC) triggered lymphatic sprouting (FIG. 1C). To characterize the integrity of the lymphatic endothelium within the device, their junctional organization was examined by immunofluorescence.
To functionally assess this rudimentary lymphatic vessel required a measure of lymphatic drainage. To accomplish this, the second, cell-free channel was pressurized with a surrogate lymph fluid composed of fluorescently labeled lymph molecules, including fatty acids, phospholipids, albumin, and insoluble particles (data not shown). The interstitial fluid pressure triggered convective fluid transport into the engineered lymphatic vessel. Lymph fluid drained by the lymphatic vessel accumulated in the connected reservoirs and was collected for analysis. Human dermal blood microvascular endothelial cells-generated blood vessels or cell-free channels were used as controls. […] Time-lapse microscopy of drainage further confirmed that fluid entered the luminal space of lymphatic vessels faster than that of blood vessels (FIG. 1H and data not shown).
Inflammation is a primary driver of lymphedema (2, 9, 10), so the next set of experiments tested whether inflammatory cytokines could impair drainage in this system. […] To begin to characterize what signaling pathways might be involved in tightening the lymphatic junctions, inhibitors that might impact IL-2-induced junction assembly were identified (data not shown): PP2, a Src-family of protein tyrosine kinase inhibitor; Wortmannin, a PI3K inhibitor; Y27632, a ROCK inhibitor; GGTI298, a Rap1 inhibitor; NSC23766, a Rac1 inhibitor; Blebbistatin, a Myosin II inhibitor; and Cpd22, an integrin-linked kinase inhibitor.

[2] = tested on: lymphedema in mouse tails; assay: mouse tail lymphedema model (surgical ligation of peripheral lymphatics); type: in vivo
Method: To investigate the potential efficacy of ROCK inhibition in lymphedema, Y27632 was tested in an established mouse model of lymphedema (13, 14). Lymphedema was induced by surgical ligation of peripheral lymphatics in mouse tails (FIG. 2G). […] Tail-injured mice were left without any treatment for one month.

[3] = tested on: LEC junctions; assay: junction staining of engineered lymphatic vessels (immunofluorescence); type: cell-based, human; details: 20 μM, IL-2 challenge
Description: as §1
Inflammation is a primary driver of lymphedema (2, 9, 10), so the next set of experiments tested whether inflammatory cytokines could impair drainage in this system. […]

[4] = tested on: tail vein edema; assay: mouse tail edema following cautery injury; type: in vivo, mice; details: following cautery injury (FIG. 4A)
Method: Tail volume changes were quantified (FIG. 4B), and drainage to the iliac lymph nodes was assesses 1 hour after intradermal injection of Alexa647-conjugated albumin into tails of mice treated with KD025 or vehicle (FIG. 4C).

[5] = clinically used ROCK inhibitors, FIG. 2C

C[C@@H](N)[C@H]1CC[C@H](C(=O)Nc2ccncc2)CC1 [Compound Y27632]
lymphatic drainage ([1]; GM-CSF and G-CSF treated conditions (FIG. 2A, 2B)): normalized | lymphatic drainage ([1]; IL-2 treated lymphatic vessels): completely normalized the impaired drainage | drainage to proximal lymph nodes compared to untreated control mice ([2]; 1 h after intradermal Alexa647-conjugated albumin (FIG. 2H)): tenfold higher drainage | time to complete resolution of lymphedema following treatment ([2]; delayed treatment, one month after tail injury): ≤ 2 weeks | reversal of existing chronic lymphedema ([2]; delayed treatment, one month after tail injury (FIG. 2I, 2J)): completely resolved the lymphedema | lymphedema (tail volume change), prevention ([2]; treatment after surgical ligation (FIG. 2G)): completely prevented lymphedema

O=S(=O)(c1cccc2cnccc12)N1CCCNCC1 [Fasudil]
lymphatic drainage [1, 5]: similarly improved lymphatic drainage

CC(C)NC(=O)COc1cccc(-c2nc(Nc3ccc4[nH]ncc4c3)c3ccccc3n2)c1 [KD025, 2-[3-[4-(1H-indazol-5-ylamino)-2-quinazolinyl]phenoxy]-N-(1-methylethyl)-acetamide]
lymphatic drainage ([1]; 20 μM, IL-2 challenge (FIG. 3L)): reversed; also recorded: sufficient to reduce lymphatic drainage | tightening of the LEC junctions [3]: reversed tightening of the LEC junctions | visible tail vein edema swelling [4]: reduced visible tail vein edema swelling

C[C@H]1CNCCCN1S(=O)(=O)c1cccc2cncc(F)c12 [Ripasudil]
lymphatic drainage [1, 5]: similarly improved lymphatic drainage

From patent US20240131029A1, “SELECTIVE ROCK2 INHIBITION FOR TREATMENT OF EDEMA AND ASSOCIATED CONDITIONS” (President and Fellows of Harvard College, priority 2021, published 2024)
